Data as given in ChEMBL document CHEMBL4616710, “Discovery of a Potent Anticancer Agent PVHD303 with in Vivo Activity” (ACS Med Chem Lett, 2020).

Assays:
[1] = test system: A549; experiment: Antiproliferative activity against human A549 cells assessed as cell growth inhibition incubated for 72 hrs by CellTiter96 Aqueous one solution cell proliferation assay; format: functional, cell-based; settings: A549, 72 h
[2] = test system: A549; experiment: Antiproliferative activity against human A549 cells assessed as cell growth inhibition; format: functional, cell-based
[3] = test system: HeLa; experiment: Antimitotic activity against human HeLa cells assessed as proportion of cells with diffuse alpha-tubulin at 4 nM measured after 16 to 18 hrs by DAPI-staining based fluorescence microscopy analysis relative to control; format: functional
[4] = test system: HCT-116; experiment: Antitumor activity against human HCT116 cells xenografted in iv dosed BALB/c nude mouse assessed as tumor growth inhibition administered once daily on day 1,3,5,8,10,12,15,17,19 and measured on day 22 by caliper method; format: functional, organism-based
[5] = test system: HCT-116; experiment: Antitumor activity against human HCT116 cells xenografted in BALB/c nude mouse assessed as tumor growth inhibition at 10 mg/kg, iv qd administered on day 1,3,5,8,10,12,15,17,19 and measured on day 22 by caliper method relative to control; format: functional; settings: HCT-116, iv, read-out: TGI
[6] = test system: HeLa; experiment: Antimitotic activity against human HeLa cells assessed as proportion of cells with irregular spindles at 4 nM measured after 16 to 18 hrs by DAPI-staining based fluorescence microscopy analysis relative to control; format: functional
[7] = test system: HeLa; experiment: (§1) Antimitotic activity against human HeLa cells assessed as proportion of cells with microtubule disruption around the condensed chromosomes and unseparated centrosome at 12 nM measured after 16 to 18 hrs by anti-alpha-tubulin/anti-gamma-tubulin antibodies based immunostaining/DAPI-staining based fluorescence microscopy analysis relative to control; format: functional
[8] = test system: HeLa; experiment: Antimitotic activity against human HeLa cells assessed as proportion of cells with bipolar spindles at 12 nM measured after 16 to 18 hrs by DAPI-staining based fluorescence microscopy analysis relative to control; format: functional
[9] = test system: HeLa; experiment: Antimitotic activity against human HeLa cells assessed as proportion of cells with diffuse alpha-tubulin at 16 nM measured after 16 to 18 hrs by DAPI-staining based fluorescence microscopy analysis relative to control; format: functional
[10] = test system: HeLa; experiment: as §1, with “4” for “12”; format: functional
[11] = test system: HeLa; experiment: Antimitotic activity against human HeLa cells assessed as proportion of mitotic cells at 16 nM measured after 16 to 18 hrs by DAPI-staining based fluorescence microscopy analysis relative to control; format: functional
[12] = test system: HeLa; experiment: Antimitotic activity against human HeLa cells assessed as proportion of mitotic cells at 12 nM measured after 16 to 18 hrs by DAPI-staining based fluorescence microscopy analysis relative to control; format: functional
[13] = test system: HCT-116; experiment: Antitumor activity against human HCT116 cells xenografted in BALB/c nude mouse assessed as tumor growth inhibition at 20 mg/kg, iv qd administered on day 1,3,5,8,10,12,15,17,19 and measured on day 22 by caliper method relative to control; format: functional; settings: HCT-116, iv, read-out: TGI
[14] = test system: HeLa; experiment: Antimitotic activity against human HeLa cells assessed as proportion of cells with diffuse alpha-tubulin at 12 nM measured after 16 to 18 hrs by DAPI-staining based fluorescence microscopy analysis relative to control; format: functional
[15] = test system: HeLa; experiment: Antimitotic activity against human HeLa cells assessed as proportion of cells with bipolar spindles at 4 nM measured after 16 to 18 hrs by DAPI-staining based fluorescence microscopy analysis relative to control; format: functional
[16] = test system: HeLa; experiment: Antimitotic activity against human HeLa cells assessed as proportion of mitotic cells at 4 nM measured after 16 to 18 hrs by DAPI-staining based fluorescence microscopy analysis relative to control; format: functional
[17] = test system: HeLa; experiment: as §1, with “16” for “12”; format: functional
[18] = test system: HeLa; experiment: Antimitotic activity against human HeLa cells assessed as proportion of cells with diffuse alpha-tubulin at 8 nM measured after 16 to 18 hrs by DAPI-staining based fluorescence microscopy analysis relative to control; format: functional
[19] = test system: HCT-116; experiment: Antiproliferative activity against human HCT116 cells assessed as cell growth inhibition incubated for 72 hrs by CellTiter96 Aqueous one solution cell proliferation assay; format: functional, cell-based; settings: HCT-116, 72 h
[20] = test system: HeLa; experiment: Antimitotic activity against human HeLa cells assessed as proportion of cells with bipolar spindles at 8 nM measured after 16 to 18 hrs by DAPI-staining based fluorescence microscopy analysis relative to control; format: functional
[21] = test system: HeLa; experiment: Antimitotic activity against human HeLa cells assessed as proportion of cells with bipolar spindles at 16 nM measured after 16 to 18 hrs by DAPI-staining based fluorescence microscopy analysis relative to control; format: functional
[22] = test system: HeLa; experiment: Antimitotic activity against human HeLa cells assessed as proportion of cells with irregular spindles at 16 nM measured after 16 to 18 hrs by DAPI-staining based fluorescence microscopy analysis relative to control; format: functional
[23] = test system: HeLa; experiment: Antimitotic activity against human HeLa cells assessed as proportion of cells with irregular spindles at 8 nM measured after 16 to 18 hrs by DAPI-staining based fluorescence microscopy analysis relative to control; format: functional
[24] = test system: HeLa; experiment: Antimitotic activity against human HeLa cells assessed as proportion of cells with irregular spindles at 12 nM measured after 16 to 18 hrs by DAPI-staining based fluorescence microscopy analysis relative to control; format: functional
[25] = test system: HeLa; experiment: Antimitotic activity against human HeLa cells assessed as proportion of mitotic cells at 8 nM measured after 16 to 18 hrs by DAPI-staining based fluorescence microscopy analysis relative to control; format: functional
[26] = test system: HeLa; experiment: as §1, with “8” for “12”; format: functional

Question: `COc1ccc(C(C)(O)c2nc(N3CCC(F)CC3)nc3ccccc23)cc1` (centres undefined) was tested. Which IC50 [1] did it give?
Answer: 760 nM

Question: `COc1ccc(C(C)(O)c2nc(-c3cccs3)nc3ccccc23)cc1` (centres undefined) was tested. Which IC50 [1] did it give?
Answer: 48 nM

Question: For `COc1ccc(C(C)(O)c2nc(-c3ccsc3C(C)=O)nc3ccccc23)cc1` (centres undefined), which IC50 [1] is on record?
Answer: 52 nM

Question: How did the IC50 [1] turn out when `COc1ccc(C(C)(O)c2nc(N3CC=CCC3)nc3ccccc23)cc1` (centres undefined) was run?
Answer: 710 nM

Question: How did the IC50 [1] turn out when `COc1ccc(C(C)(O)c2nc(-c3ccccc3O)nc3ccccc23)cc1` (centres undefined) was run?
Answer: 223 nM

Question: For `CNc1nc(C(C)(O)c2ccc(OC)cc2)c2ccccc2n1` (centres undefined), which IC50 [1] is on record?
Answer: 20 nM

Question: Which IC50 [1] does the source give for `COc1ccc(C(C)(O)c2ncnc3ccc(C)cc23)cc1` (centres undefined) here?
Answer: 1100 nM

Question: `COc1ccc(C(C)(O)c2nc(N3CCC(F)(F)CC3)nc3ccccc23)cc1` (centres undefined) was tested. Which IC50 [1] did it give?
Answer: 4910 nM

Question: `COc1ccc(C(C)(O)c2nc(N3CCC(O)CC3)nc3ccccc23)cc1` (centres undefined) was tested. Which IC50 [1] did it give?
Answer: 9320 nM

Question: With `COc1ccc(C(C)(O)c2ncnc3cc(Cl)ccc23)cc1` (centres undefined) as the compound, how does the IC50 [1] read?
Answer: 870 nM

Question: With `COC(=O)Nc1nc2cc(C(=O)c3cccs3)ccc2[nH]1` [NOCODAZOLE] as the compound, how does the IC50 [1] read?
Answer: 272 nM

Question: Which IC50 [1] does the source give for `COc1ccc(C(C)(O)c2ncnc3cc(OC)ccc23)cc1` (centres undefined) here?
Answer: > 25000 nM

Question: `COc1ccc(C(C)(O)c2nc(-c3ccc(Cl)s3)nc3ccccc23)cc1` (centres undefined) was tested. Which IC50 [1] did it give?
Answer: 895 nM

Question: How did the IC50 [2] turn out when `COc1ccc(C(C)(O)c2nc(N3CCOCC3)nc3ccccc23)cc1` (centres undefined) was run?
Answer: 140 nM

Question: Which results are given for `COc1ccc(C(C)(O)c2nc(-c3ccoc3)nc3ccccc23)cc1` (centres undefined)?
Answer: Activity [3]: 0%; TGI [4]: Dose-dependent effect; inhibition in vivo at 10 mg/kg [5]: 24.6%; Activity [6]: 0%; Activity [7]: 67%; Activity [8]: 0%; IC50 [1]: 13 nM; Activity [9]: 43%; Activity [10]: 0%; Activity [11]: 60%; Activity [12]: 52%; inhibition in vivo at 20 mg/kg [13]: 62.9%; Activity [14]: 33%; Activity [15]: 100%; Activity [16]: 50%; Activity [17]: 57%; Activity [18]: 0%; IC50 [19]: 13 nM; Activity [20]: 50%; Activity [21]: 0%; Activity [22]: 0%; Activity [23]: 44.2%; Activity [24]: 0%; Activity [25]: 52%; Activity [26]: 5.8%

Question: How did the IC50 [1] turn out when `COc1ccc(C(C)(O)c2nc(N3CCSC3)nc3ccccc23)cc1` (centres undefined) was run?
Answer: 580 nM

Question: For `COc1ccc(C(C)(O)c2nc(Br)nc3ccccc23)cc1` (centres undefined), which IC50 [1] is on record?
Answer: 50 nM

Question: With `C/C=C\c1nc(C(C)(O)c2ccc(OC)cc2)c2ccccc2n1` (centres undefined) as the compound, how does the IC50 [1] read?
Answer: 380 nM

Question: `COc1ccc(C(C)(O)c2nc(N3CC3)nc3ccccc23)cc1` (centres undefined) was tested. Which IC50 [1] did it give?
Answer: 220 nM

Question: How did the IC50 [1] turn out when `COc1ccc(C(C)(O)c2ncnc3c(F)cccc23)cc1` (centres undefined) was run?
Answer: 430 nM

Question: With `COc1ccc(C(C)(O)c2nc(N3CCSCC3)nc3ccccc23)cc1` (centres undefined) as the compound, how does the IC50 [1] read?
Answer: 2440 nM

Question: Which IC50 [1] does the source give for `COc1ccc(C(C)(O)c2ncnc3ccc(F)cc23)cc1` (centres undefined) here?
Answer: 350 nM

Question: `COc1ccc(C(C)(O)c2nc(-n3cccc3)nc3ccccc23)cc1` (centres undefined) was tested. Which IC50 [1] did it give?
Answer: 50 nM

Question: With `COc1ccc(C(C)(O)c2ncnc3cc(C)ccc23)cc1` (centres undefined) as the compound, how does the IC50 [1] read?
Answer: > 25000 nM

Question: `COc1ccc(C(C)(O)c2nc(-c3ccc(C(F)(F)F)cc3)nc3ccccc23)cc1` (centres undefined) was tested. Which IC50 [1] did it give?
Answer: 1590 nM
